Results taken from paper PMC9434233, “Transmembrane helices 5 and 12 control transport dynamics, substrate affinity, and specificity in the elevator-type UapA transporter” (Genetics, 2022).

How the values were obtained:
UapA [1] = biological target: T1, UapA (Aspergillus nidulans, UniProt Q07307); assay: competition of [3H]-xanthine uptake in germinating conidiospores; assay type: cell-based
T1 construct: full-length UapA, C-terminal GFP-type functional tag kept, gpdA promoter, expressed in A. nidulans Δ7 strain lacking 7 major nucleobase transporters; homodimer

UapA [2] = biological target: T1, UapA; assay: [3H]-xanthine uptake in germinating conidiospores, initial rates; assay type: cell-based; details: pH 6.8, 37°C; H+ symport; labelled compound; read-out: Km app

| Ki (UapA [1]) | SMILES | Km (UapA [2]) |
| --- | --- | --- |
| 103 µM | O=c1[nH]c(=O)c2c[nH]nc2[nH]1 [OX, oxypurinol] |  |
|  | O=c1[nH]c(=O)c2[nH]cnc2[nH]1 [XA, xanthine] | 6 µM |
